Entries after “also recorded” stand apart in the source; their conditions may differ.
Columns and labels:
[1] = system: binocular rivalry dynamics; test: Binocular rivalry task, double-blind placebo-controlled crossover, before and 3 h after donepezil or placebo; format: in vivo, human
Description: The binocular rivalry task consisted of a dichoptic stimulus where participants viewed a left-tilted grating in one eye and a right-tilted grating in the other for 90 s, continuously indicating via key-press whether they were seeing (1) the left eye's image, (2) the right eye's image, (3) a piecemeal mixture of the two images, or (4) a superimposed mixture of the two images (FIG. 1). This task was used to better characterize the mixed percepts while also encouraging participants not to miscategorize a mixed percept as exclusive.
Binocular rivalry task. A previously developed (Skerswetat et al., 2018) binocular rivalry task was adapted to quantify the fractions and median durations of exclusive, piecemeal, superimposition, and overall mixed percepts (for illustrations, see FIG. 1B). At the beginning of each session, participants were shown images on a document that illustrated the differences between the left-oriented, right-oriented, and superimposition versus piecemeal mixed percepts. Participants were told that they would see a dynamic stimulus during the experiment and that their task was to track what they were seeing, with particular attention to timeliness and accuracy.
Participants were given the option to continuously indicate whether they were seeing either (1) an exclusively left-tilted grating, (2) an exclusively right-tilted grating, (3) a superimposition mixed percept, or (4) a piecemeal mixed percept. Participants used three adjacent keys for the task, using the left to indicate exclusive left-tilt, right for right-tilt, a holding down a combination of the left and right keys for the piecemeal percepts, and the middle key for the superimposition percepts. It was specified that the criterion for exclusive percepts should be ˜90% left or right oriented.
Experimental design and statistical analysis. […] Group assignment was counterbalanced across participants to control for possible session-order effects. The experimenter was not aware of the treatment condition of the two group assignments until after data collection was complete. For safety purposes, the experimenter recorded the participant's systolic blood pressure at baseline and monitored blood pressure levels throughout the experiment.
The general protocol of each experimental block is outlined in FIG. 1A. Each block consisted of two binocular rivalry runs followed by two rivalry replay runs, each lasting 90 s.
Each run (rivalry and replay) began with a dichoptic nonius cross presented inside a 3° oval surrounded by a black-and-white noise (1 cycle/degree) frame (side=10°). The observer was asked to make keypresses to adjust the position of the two frames to calibrate the optimal position for comfortable fusion. After confirmation, the participant was instructed to fixate at a fixation dot (0.2°) and place their hands on the appropriate keys to begin responding to the rivalry task. After a keypress, the dichoptic stimulus appeared and participants began responding to what they were observing on the monitor using the keypress instructions provided at the beginning of each session. Subsequent runs were initiated after a brief break where subjects viewed a mean-gray background screen. […] During the incubation period, subjects were instructed to keep both eyes open and do normal activities such as watching a movie or doing computer work in a well-lit room.
Baseline and posttreatment measurements were drawn from four experimental blocks. A mandatory 2-min break was implemented between each experimental block to prevent fatigue.

[2] = system: replay rivalry criterion and response latency; test: Rivalry replay control (criterion for mixed percept and response latency); format: in vivo, human; conditions: donepezil 5 mg oral vs placebo; F(1,22)=1.4
Description: To ensure any treatment effects were the result of changes in visual neural activity as opposed to changes in motor or executive function, a rivalry replay control experiment was implemented where participants watched computer-generated videos of simulated binocular rivalry, presented identically to both eyes. […] See FIG. 2 for additional details regarding the plots.
Rivalry replay control. A rivalry replay control condition was used to characterize the criterion for categorizing a percept as mixed and to quantify the latency of binocular rivalry responses (Robertson et al., 2013, 2016). The replay control consisted of computer-generated videos presented binocularly, where the stimulus was oscillated from left-oriented gratings to right-oriented gratings along a continuous scale, such that the midpoint of this oscillation would produce a complete mixture of the two gratings. […]
In addition, the overall rate of rivalry, defined as the total number of switches between the exclusive percepts divided by the run duration (Robertson et al., 2013, 2016) was extracted. In order to quantify the magnitude of the effect of the two treatment conditions relative to baseline, mean posttreatment values were divided by the mean baseline values to obtain post/pre ratios for each dependent variable across both experimental conditions. […]

[3] = system: visual function; conditions: cited from earlier work

## COc1cc2c(cc1OC)C(=O)C(CC1CCN(Cc3ccccc3)CC1)C2 (stereo not drawn) [donepezil]
[1]; donepezil 5 mg oral vs placebo, F(1,22)=2.68, p=0.04
  overall effect on binocular rivalry dynamics (repeated measures MANOVA of post/pre values): significantly altered binocular rivalry dynamics
[1]; donepezil 5 mg oral, 3 h, 23 participants
  participants with increases in the fraction of mixed visibility: 19 out of 23
[1]; donepezil 5 mg oral, 3 h, of the 19 participants with increases
  individuals exhibiting donepezil-induced increases of 0.50% in fraction of mixed visibility: eight
[1]; po, 5 mg, 3 h
  decrease of rate of binocular rivalry: 36%
  enhancement of fraction of aggregate mixed visibility during rivalry: 43%
  enhancement of fraction visibility of superimposition percepts: 70%
  increase of median duration of mixed visibility: 20%
  increase of median duration of piecemeal percepts: 49%
  increase of median duration of superimposition percepts: 54%
  reduction of fraction of exclusive percepts: 59%
  reduction of fraction of piecemeal percepts: 15%
  reduction of median duration of exclusive percepts: 78%
[2]
  effect on criterion and response latency in rivalry replay control (MANOVA): no observable differences; also recorded: not significant
[3]; Chung et al., 2017
  effect on monocular visual function using perceptual learning: not useful to improve monocular visual function
[3]; Sheynin et al., 2019
  effect on perceptual eye dominance changes from short term patching of one eye: impede perceptual eye dominance changes

From patent US20220323426A1, “CHOLINERGIC POTENTIATION OF BINOCULAR VISION” (THE ROYAL INSTITUTION FOR THE ADVANCEMENT OF LEARNING / …, priority 2019, published 2022)
